Test results reported in patent US6413959B1, “Method of treating depression with arylglycinamide derivatives” (Boehringer Ingelheim KG, priority 1995, dated 2002).
Structures can show the parent of a compound that is named as a salt.

Test system: not given
Experiment: not given
Details: not given

| SMILES | melting point |
| --- | --- |
| O=C(NCc1cc(C(F)(F)F)cc(C(F)(F)F)c1)C(c1ccccc1)N1CCC2(CC1)C(=O)NCN2c1ccccc1 (centres unmarked) | 205 to 210 °C |
| Cl.O=C(NCc1cc(C(F)(F)F)cc(C(F)(F)F)c1)C(c1ccccc1)N1CCC(N2C(=O)CCC2=O)CC1 (centres unmarked) | 110 to 115 °C |
| Cl.O=C(NCc1cc(C(F)(F)F)cc(C(F)(F)F)c1)C(c1ccccc1)N1CCC(N(C(=O)c2ccccc2)c2ccccn2)CC1 (centres unmarked) | 145 to 151 °C |
| Cc1nc2ccccc2n1C1CCN(C(C(=O)NCc2cc(C(F)(F)F)cc(C(F)(F)F)c2)c2ccccc2)CC1 (centres unmarked) | 107 to 111 °C |
| CN(CCc1cc(C(F)(F)F)cc(C(F)(F)F)c1)C(=O)C(c1ccccc1)N1CCC(C(N)=O)(c2ccccc2)CC1.Cl (centres unmarked) | 127 to 137 °C |
| CN(CCc1cc(C(F)(F)F)cc(C(F)(F)F)c1)C(=O)C(c1ccccc1)N1CCC(c2ccccc2)CC1.Cl (centres unmarked) | 106 to 110 °C |
| CN(CCc1cc(C(F)(F)F)cc(C(F)(F)F)c1)C(=O)C(c1ccccc1)N1CCC2(CC1)C(=O)NCN2c1ccccc1 (centres unmarked) | 265 to 268 °C (dec.) |
| CN(CCc1cc(C(F)(F)F)cc(C(F)(F)F)c1)C(=O)C(c1ccccc1)N1CCC(n2c(=O)[nH]c3ccccc32)CC1 (centres unmarked) | 177 to 187 °C |
| O=C(NCc1cc(C(F)(F)F)cc(C(F)(F)F)c1)C(c1ccccc1)N1CCC(N(C(=O)c2ccccc2)c2ccccc2)CC1 (centres unmarked) | 102 to 105 °C |
| CN(CCc1cc(C(F)(F)F)cc(C(F)(F)F)c1)C(=O)C(c1ccccc1)N1CCC(N2CCCCC2)CC1 (centres unmarked) (as salt: hydrochloride) [Example 33] | > 240 °C |
| O=C(NCc1cc(C(F)(F)F)cc(C(F)(F)F)c1)C(c1ccccc1)N1CCN(C2CCCCC2)CC1 (racemic) [Example 1, (R,S)-1-cyclohexyl-piperazinyl-4-[2-phenylacetic acid-N-(3,5-bis-trifluoromethylbenzyl)amide]] | 124 to 129 °C |
| CCC(=O)NC1CCN(C(C(=O)NCc2cc(C(F)(F)F)cc(C(F)(F)F)c2)c2ccccc2)CC1 (racemic) [Example 2, (R,S)-4-propionylamino-1-[2-phenylacetic acid-N(3,5-bis-trifluoromethyl-benzyl)-amide]-piperidine] | 189 to 191 °C |
| O=C(NCc1cc(C(F)(F)F)cc(C(F)(F)F)c1)C(c1ccccc1)N1CCN(CCC2CCCCC2)CC1 (centres unmarked) [Example 6] | 97 to 99 °C |
| O=C(NCc1cc(C(F)(F)F)cc(C(F)(F)F)c1)C(c1ccccc1)N1CCC(N2CCCCC2)CC1 (centres unmarked) [Example 7] | > 240 °C (dec.) |
| O=C(Nc1ccccc1)NC1CCN(C(C(=O)NCc2cc(C(F)(F)F)cc(C(F)(F)F)c2)c2ccccc2)CC1 (centres unmarked) [Example 10] | 218 to 223 °C |
| NC(=O)C1(N2CCCCC2)CCN(C(C(=O)NCc2cc(C(F)(F)F)cc(C(F)(F)F)c2)c2ccccc2)CC1 (centres unmarked) [Example 11] | > 220 °C (dec.) |
| CC(=O)N1CCN(C2CCN(C(C(=O)NCc3cc(C(F)(F)F)cc(C(F)(F)F)c3)c3ccccc3)CC2)C1=O (centres unmarked) [Example 13] | 87 to 95 °C |
| O=C(NCc1cc(C(F)(F)F)cc(C(F)(F)F)c1)C(c1ccccc1)N1CCC(Nc2ccccn2)CC1 (centres unmarked) [Example 14] | 164 to 166 °C |
| O=C(NCc1cc(C(F)(F)F)cc(C(F)(F)F)c1)C(c1ccccc1)N1CCC(n2c(=O)[nH]c3cccnc32)CC1 (centres unmarked) [Example 15] | 208 to 210 °C |
| O=C(NCCCc1ccc(C(F)(F)F)cc1C(F)(F)F)C(c1ccccc1)N1CCN(C2CCCCC2)CC1 (centres unmarked) [Example 17] | 118 to 123 °C |

| SMILES | melting point |
| --- | --- |
| O=C(NCc1cc(C(F)(F)F)cc(C(F)(F)F)c1)C(c1ccccc1)N1CCN(CCC2CC2)CC1 (centres unmarked) [Example 18] | 134 to 136 °C |
| O=C(Nc1ccccc1)C1CCN(C(C(=O)NCc2cc(C(F)(F)F)cc(C(F)(F)F)c2)c2ccccc2)CC1 (centres unmarked) [Example 19] | > 240 °C (dec.) |
| O=C(NC1CCN(C(C(=O)NCc2cc(C(F)(F)F)cc(C(F)(F)F)c2)c2ccccc2)CC1)c1ccccc1 (centres unmarked) [Example 20] | 180 to 185 °C |
| O=C(NCc1cc(C(F)(F)F)cc(C(F)(F)F)c1)C(c1ccc(Br)cc1)N1CCN(C2CCCCC2)CC1 (centres unmarked) [Example 21] | 228 to 232 °C |
| O=C(O)CN(Cc1cc(C(F)(F)F)cc(C(F)(F)F)c1)C(=O)C(c1ccccc1)N1CCN(C2CCCCC2)CC1 (centres unmarked) [Example 22] | 70 to 73 °C |
| O=C(NCc1cc(C(F)(F)F)cc(C(F)(F)F)c1)C(c1ccc(Cl)c(Cl)c1)N1CCN(C2CCCCC2)CC1 (centres unmarked) [Example 23] | 248 to 254 °C |
| O=C(NCc1cc(C(F)(F)F)cc(C(F)(F)F)c1)C(c1cc(C(F)(F)F)cc(C(F)(F)F)c1)N1CCN(C2CCCCC2)CC1 (centres unmarked) [Example 24] | 210 °C |
| O=C(NCCc1cc(C(F)(F)F)cc(C(F)(F)F)c1)C(c1ccccc1)N1CCC(N2CCCCC2)CC1 (centres unmarked) [Example 25] | 192 to 199 °C |
| O=C(NCc1cc(C(F)(F)F)cc(C(F)(F)F)c1)C(c1ccc(Cl)cc1)N1CCN(C2CCCCC2)CC1 (centres unmarked) [Example 26] | 112 to 118 °C |
| O=C(NCc1cc(C(F)(F)F)cc(C(F)(F)F)c1)C(c1cccc(Br)c1)N1CCN(C2CCCCC2)CC1 (centres unmarked) [Example 27] | 124 to 127 °C |
| O=C(NCc1cc(C(F)(F)F)cc(C(F)(F)F)c1)C(c1ccccc1Br)N1CCN(C2CCCCC2)CC1 (centres unmarked) [Example 28] | 118 to 120 °C |
| O=C(NCc1cc(C(F)(F)F)cc(C(F)(F)F)c1)C(c1ccccc1Cl)N1CCN(C2CCCCC2)CC1 (centres unmarked) [Example 29] | 120 to 122 °C |
| O=C(NCc1cc(C(F)(F)F)cc(C(F)(F)F)c1)C(c1cccc(Cl)c1)N1CCN(C2CCCCC2)CC1 (centres unmarked) [Example 30] | > 240 °C |
| O=C(NCc1cc(C(F)(F)F)cc(C(F)(F)F)c1)C(c1ccc(F)cc1)N1CCN(C2CCCCC2)CC1 (centres unmarked) [Example 31] | > 240 °C |
| O=C(NCCc1cc(C(F)(F)F)cc(C(F)(F)F)c1)C(c1cccc2ccccc12)N1CCN(C2CCCCC2)CC1 (centres unmarked) [Example 38] | 155 to 172 °C |
| COc1ccccc1C(C(=O)NCc1cc(C(F)(F)F)cc(C(F)(F)F)c1)N1CCN(C2CCCCC2)CC1 (centres unmarked) [Example 42] | 142 to 150 °C |
| CN(CCc1cc(C(F)(F)F)cc(C(F)(F)F)c1)C(=O)C(c1ccccc1)N1CCN(c2ccccc2)CC1 (centres unmarked) [Example 60] | 113 to 123 °C |
| O=C(NCCc1cc(C(F)(F)F)cc(C(F)(F)F)c1)C(c1ccccc1Br)N1CCN(C2CCCCC2)CC1 (centres unmarked) [Example 62] | 210 to 218 °C |
| O=C(NCCc1cc(C(F)(F)F)cc(C(F)(F)F)c1)C(c1ccccc1Cl)N1CCN(C2CCCCC2)CC1 (centres unmarked) [Example 63] | 215 to 224 °C |
| COc1ccccc1C(C(=O)NCCc1cc(C(F)(F)F)cc(C(F)(F)F)c1)N1CCN(C2CCCCC2)CC1 (centres unmarked) [Example 64] | 85 to 92 °C |

Target: T1, NK1-receptor (substance P-receptor) (Homo sapiens, UniProt P25103)
T1 construct: expressed in transfected cells; host or cells: IM-9 human lymphoblastoma cells
Experiment: NK1-receptor affinity, displacement of 125I-labelled substance P on IM-9 cells
Assay type: binding
Details: human lymphoblastoma cells (IM-9) with cloned NK1-receptors

T1 sequence (P25103 whole entry): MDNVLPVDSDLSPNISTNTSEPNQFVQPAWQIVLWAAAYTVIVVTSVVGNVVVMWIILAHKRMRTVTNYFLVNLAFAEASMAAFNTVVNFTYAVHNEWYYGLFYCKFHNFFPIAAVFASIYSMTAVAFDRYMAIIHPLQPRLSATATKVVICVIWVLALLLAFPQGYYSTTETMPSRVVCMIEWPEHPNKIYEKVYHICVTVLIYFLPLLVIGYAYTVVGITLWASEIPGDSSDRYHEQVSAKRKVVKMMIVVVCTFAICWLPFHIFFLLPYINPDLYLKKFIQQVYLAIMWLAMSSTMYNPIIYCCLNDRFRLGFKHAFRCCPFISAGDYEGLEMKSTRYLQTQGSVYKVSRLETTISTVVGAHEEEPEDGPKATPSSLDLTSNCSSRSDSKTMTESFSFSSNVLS

| SMILES | Ki [nM] |
| --- | --- |
| CN(CCc1cc(C(F)(F)F)cc(C(F)(F)F)c1)C(=O)C(c1ccccc1)N1CCC(N2CCCCC2)CC1 (centres unmarked) [Example 33] | 1.3 |
| CN(CCc1cc(C(F)(F)F)cc(C(F)(F)F)c1)C(=O)C(c1ccccc1)N1CCC(N2CCCC2)CC1 (centres unmarked) [Example 45] | 1.6 |
| CN(CCc1cc(C(F)(F)F)cc(C(F)(F)F)c1)C(=O)C(c1ccccc1)N1CCC(N2CCOCC2)CC1 (centres unmarked) [Example 46] | 1.4 |
| CC(C)N(CCc1cc(C(F)(F)F)cc(C(F)(F)F)c1)C(=O)C(c1ccccc1)N1CCC(N2CCCCC2)CC1 (centres unmarked) [Example 72] | 6.8 |
